What is called pIC50 is the negative decadic logarithm of the IC50, by convention in mol/L. A low value points to a large IC50.

Molecules are shown by their SMILES. pIC50: −log10 of the molar value.

Consider eight compounds from ChEMBL document CHEMBL1129990, “Effect of N9-methylation and bridge atom variation on the activity of 5-substituted 2,4-diaminopyrrolo[2,3-d]pyrimidines against dihydrofolate reductases from Pneumocystis carinii and Toxoplasma gondii” (J Med Chem, 1997).

Test [1] deals with T1, Dihydrofolate reductase (Pneumocystis carinii, UniProt P16184).
T1 sequence (P16184 whole entry): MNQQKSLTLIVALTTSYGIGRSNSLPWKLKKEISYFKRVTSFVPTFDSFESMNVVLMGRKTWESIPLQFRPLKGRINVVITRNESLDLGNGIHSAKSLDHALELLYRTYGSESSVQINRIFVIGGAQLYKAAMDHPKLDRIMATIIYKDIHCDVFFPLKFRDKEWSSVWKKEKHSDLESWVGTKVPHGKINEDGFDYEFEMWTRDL
Description: Inhibition against Dihydrofolate reductase in Pneumocystis carinii

The target of test [2] is T2, Bifunctional dihydrofolate reductase-thymidylate synthase (Toxoplasma gondii, UniProt Q07422).
T2 sequence (Q07422 whole entry): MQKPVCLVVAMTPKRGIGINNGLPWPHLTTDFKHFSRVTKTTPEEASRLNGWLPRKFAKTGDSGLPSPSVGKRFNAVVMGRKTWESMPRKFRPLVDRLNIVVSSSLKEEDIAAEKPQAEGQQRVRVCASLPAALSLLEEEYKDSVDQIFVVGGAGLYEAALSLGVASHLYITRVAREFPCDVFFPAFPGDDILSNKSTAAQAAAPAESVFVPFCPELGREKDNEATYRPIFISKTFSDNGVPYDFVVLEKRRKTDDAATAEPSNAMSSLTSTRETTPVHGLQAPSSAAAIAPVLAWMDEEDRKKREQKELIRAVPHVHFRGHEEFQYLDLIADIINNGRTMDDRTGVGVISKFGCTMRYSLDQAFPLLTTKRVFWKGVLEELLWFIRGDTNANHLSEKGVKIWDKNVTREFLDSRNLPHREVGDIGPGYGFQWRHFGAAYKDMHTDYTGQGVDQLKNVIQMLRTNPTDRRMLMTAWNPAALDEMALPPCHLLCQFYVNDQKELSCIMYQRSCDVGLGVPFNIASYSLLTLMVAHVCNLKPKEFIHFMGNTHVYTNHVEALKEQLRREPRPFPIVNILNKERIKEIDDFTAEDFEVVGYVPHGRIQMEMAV
Description: Inhibition against Dihydrofolate reductase in Toxoplasma gondii

Test [3] deals with T3, Dihydrofolate reductase (Rattus norvegicus, UniProt Q920D2).
T3 sequence (Q920D2 whole entry): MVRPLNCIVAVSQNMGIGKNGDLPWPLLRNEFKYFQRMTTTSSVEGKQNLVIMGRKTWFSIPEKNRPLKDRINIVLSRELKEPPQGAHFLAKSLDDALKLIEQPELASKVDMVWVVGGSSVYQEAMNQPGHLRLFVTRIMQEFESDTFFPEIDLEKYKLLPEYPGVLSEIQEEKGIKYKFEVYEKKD
Description: Inhibition against Dihydrofolate reductase in rat liver

`Nc1nc(N)c2c(CSc3cccc4ccccc34)c[nH]c2n1`: the pIC50 in test [1] was 4.97; in test [2], 6.09; in test [3] it was 5.52.

Turning to `Nc1nc(N)c2c(CSc3ccc(Cl)c(Cl)c3)c[nH]c2n1`, the results for the pIC50 in test [1], in test [2] and in test [3] were 4.23, 4.94 and 5.28, respectively.

For the compound `COc1ccc(SCc2c[nH]c3nc(N)nc(N)c23)cc1OC`, the pIC50 in test [1] was 4.95; in test [2] it was 5.59; in test [3], 4.78.

Regarding `Nc1nc(N)c2c(CSc3ccc4ccccc4c3)c[nH]c2n1`, the pIC50 was 3.03 in test [1], 5.04 in test [2] and 4.08 in test [3].

Take `CN(Cc1c[nH]c2nc(N)nc(N)c12)c1ccc(C(=O)N(C)C(CCC(=O)O)C(=O)O)cc1` (centres undefined): the pIC50 in test [1] was 7.36; in test [2], 6.82; in test [3] it was 7.22.

On to `COc1ccc(OC)c(N(C)Cc2c[nH]c3nc(N)nc(N)c23)c1`, for which the pIC50 is under 4.92 in test [1], 5.47 in test [2] and under 4.92 in test [3].

On to `CN(Cc1c[nH]c2nc(N)nc(N)c12)c1ccc(Cl)c(Cl)c1`, for which the values for the pIC50 in test [1], in test [2] and in test [3] were 4.55, 6.00 and 5.52, respectively.

For `CN(Cc1c[nH]c2nc(N)nc(N)c12)c1cccc2ccccc12`, the pIC50 was 3.68 in test [1], 6.06 in test [2] and 5.09 in test [3].
